Source: PubChem BioAssay AID330 (DTP/NCI, 2004)
Several values for one entry are separate records, joined by “and”; a condition that tells them apart may be missing. Equal values may be shown once. Toxic doses and inconclusive results are not listed. How the source made its calls: active means survival T/C of 150% or more; inactive means T/C below 125% in these data.

Tested on: P388 leukemia ip, CD2F1 mice, survival T/C
Assay: NCI In Vivo Anticancer Drug Screen. Data for tumor model P388 Leukemia (intraperitoneal) in CD2F1 (CDF1) mice
Settings: endpoint: median survival time, higher = longer survival
Procedure, shortened: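 Mice carrying the transplanted tumor received test compound or vehicle. Survival was recorded in each group, and the value is the treated-group measurement divided by that of the vehicle-treated control group.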

[1] = dose: 50.0 mg/kg/injection, schedule: Q01DX009 (ip), vehicle: saline with Tween-80
[2] = dose: 100.0 mg/kg/injection, schedule: Q01DX009 (ip), vehicle: saline with Tween-80
[3] = dose: 200.0 mg/kg/injection, schedule: Q01DX009 (ip), vehicle: saline with Tween-80
[4] = dose: 50.0 mg/kg/injection, schedule: Q01DX005 (ip), vehicle: Klucel (hydroxypropylcellulose) (HPC)
[5] = dose: 50.0 mg/kg/injection, schedule: Q01DX005 (ip), vehicle: saline with Tween-80
[6] = dose: 100.0 mg/kg/injection, schedule: Q01DX005 (ip), vehicle: saline with Tween-80
[7] = dose: 200.0 mg/kg/injection, schedule: Q01DX005 (ip), vehicle: saline with Tween-80
[8] = dose: 100.0 mg/kg/injection, schedule: Q01DX001 (ip), vehicle: Klucel (hydroxypropylcellulose) (HPC)
[9] = dose: 200.0 mg/kg/injection, schedule: Q01DX001 (ip), vehicle: Klucel (hydroxypropylcellulose) (HPC)
[10] = dose: 60.0 mg/kg/injection, schedule: Q01DX005 (ip), vehicle: Klucel (hydroxypropylcellulose) (HPC)
[11] = dose: 120.0 mg/kg/injection, schedule: Q01DX005 (ip), vehicle: Klucel (hydroxypropylcellulose) (HPC)

Measured: T/C

Cc1c2oc3c(C)ccc(C(=O)NC(C(=O)NC(C(=O)NN)C(C)C)C(C)O)c3nc-2c(C(=O)NC(C(=O)NC(C(=O)NN)C(C)C)C(C)O)c(N)c1=O (stereo not drawn)
inactive: dose: 0.05 mg/kg/injection, schedule: Q01DX009 (ip), vehicle: water 106 % of control | dose: 0.1 mg/kg/injection, schedule: Q01DX009 (ip), vehicle: water 107 % of control | dose: 0.2 mg/kg/injection, schedule: Q01DX009 (ip), vehicle: water 97 % of control | dose: 0.4 mg/kg/injection, schedule: Q01DX009 (ip), vehicle: water 101 % of control | dose: 0.8 mg/kg/injection, schedule: Q01DX009 (ip), vehicle: water 101 % of control | dose: 1.6 mg/kg/injection, schedule: Q01DX009 (ip), vehicle: water 108 % of control and 110 % of control | dose: 3.2 mg/kg/injection, schedule: Q01DX009 (ip), vehicle: water 99 % of control | dose: 6.4 mg/kg/injection, schedule: Q01DX009 (ip), vehicle: water 99 % of control | dose: 12.8 mg/kg/injection, schedule: Q01DX009 (ip), vehicle: water 97 % of control

CCN(CC)CC.[CH-]1CCCCC1.[CH-]1CCCCC1.[CH3-].[Cl-].[Cl-].[Sn+4]
inactive: dose: 6.0 mg/kg/injection, schedule: Q01DX005 (ip), vehicle: saline 107 % of control | dose: 12.0 mg/kg/injection, schedule: Q01DX005 (ip), vehicle: saline 96 % of control

CCC1=CCC2C(=O)C3C(C(=O)C2C1)C1(c2ccccc2)OC3(c2ccccc2)c2ccccc21 (stereo not drawn)
inactive: [1] 95 % of control | [2] 88 % of control | [3] 87 % of control

N/C(=N\N=C\c1cc(Br)cc(Br)c1O)N/N=C/c1cc(Br)cc(Br)c1O
inactive: dose: 12.5 mg/kg/injection, schedule: Q01DX009 (ip), vehicle: distilled water + Tween-80 88 % of control | dose: 25.0 mg/kg/injection, schedule: Q01DX009 (ip), vehicle: distilled water + Tween-80 93 % of control | dose: 50.0 mg/kg/injection, schedule: Q01DX009 (ip), vehicle: distilled water + Tween-80 90 % of control | dose: 200.0 mg/kg/injection, schedule: Q01DX009 (ip), vehicle: distilled water + Tween-80 98 % of control

Cc1ccc(/C=C(\NC(=O)c2ccc(C)cc2)C(=O)O)cc1
inactive: [4] 114 % of control | dose: 100.0 mg/kg/injection, schedule: Q01DX005 (ip), vehicle: Klucel (hydroxypropylcellulose) (HPC) 114 % of control | dose: 200.0 mg/kg/injection, schedule: Q01DX005 (ip), vehicle: Klucel (hydroxypropylcellulose) (HPC) 107 % of control

COC(=O)c1cc(-c2ccco2)n2c(NC(=O)Nc3ccc(Cl)cc3)nnc2n1
inactive: [5] 98 % of control | [6] 103 % of control | [7] 95 % of control

[O-][n+]1cnn2ccccc21
inactive: dose: 60.0 mg/kg/injection, schedule: Q01DX005 (ip), vehicle: saline with Tween-80 100 % of control | dose: 120.0 mg/kg/injection, schedule: Q01DX005 (ip), vehicle: saline with Tween-80 106 % of control | dose: 240.0 mg/kg/injection, schedule: Q01DX005 (ip), vehicle: saline with Tween-80 102 % of control

CC(C)Sc1ncn[nH]1
inactive: dose: 50.0 mg/kg/injection, schedule: Q01DX005 (ip), vehicle: saline 99 % of control | dose: 100.0 mg/kg/injection, schedule: Q01DX005 (ip), vehicle: saline 100 % of control | dose: 200.0 mg/kg/injection, schedule: Q01DX005 (ip), vehicle: saline 102 % of control

CCN(CCO)CCNc1ccc(C)c2sc3cc(OC)ccc3c(=O)c12
inactive: [5] 102 % of control and 103 % of control and 107 % of control | [6] 106 % of control and 112 % of control and 117 % of control | [7] 103 % of control and 119 % of control | dose: 400.0 mg/kg/injection, schedule: Q01DX005 (ip), vehicle: saline with Tween-80 115 % of control

CSc1ccc(NC(=S)SC(C)C)cc1Cl
inactive: dose: 50.0 mg/kg/injection, schedule: Q01DX009 (ip), vehicle: saline 97 % of control | dose: 100.0 mg/kg/injection, schedule: Q01DX009 (ip), vehicle: saline 97 % of control | dose: 200.0 mg/kg/injection, schedule: Q01DX009 (ip), vehicle: saline 102 % of control

Nc1ncnc2c1ccn2C1OC2COP(=O)(O)OC2C1O (stereo not drawn)
inactive: dose: 0.13 mg/kg/injection, schedule: Q03HX024 (ip), vehicle: saline 90 % of control | dose: 0.25 mg/kg/injection, schedule: Q03HX024 (ip), vehicle: saline 104 % of control | dose: 0.5 mg/kg/injection, schedule: Q03HX024 (ip), vehicle: saline 100 % of control | dose: 1.0 mg/kg/injection, schedule: Q01DX009 (ip), vehicle: saline 100 % of control | dose: 1.0 mg/kg/injection, schedule: Q03HX024 (ip), vehicle: saline 122 % of control | dose: 1.0 mg/kg/injection, schedule: Q04DX003 (ip), vehicle: saline 104 % of control | dose: 2.0 mg/kg/injection, schedule: Q01DX001 (ip), vehicle: saline 100 % of control | dose: 2.0 mg/kg/injection, schedule: Q01DX009 (ip), vehicle: saline 104 % of control | dose: 2.0 mg/kg/injection, schedule: Q04DX003 (ip), vehicle: saline 100 % of control | dose: 4.0 mg/kg/injection, schedule: Q01DX001 (ip), vehicle: saline 100 % of control | dose: 4.0 mg/kg/injection, schedule: Q04DX003 (ip), vehicle: saline 104 % of control | dose: 8.0 mg/kg/injection, schedule: Q01DX001 (ip), vehicle: saline 109 % of control | dose: 8.0 mg/kg/injection, schedule: Q01DX009 (ip), vehicle: saline 95 % of control | dose: 8.0 mg/kg/injection, schedule: Q04DX003 (ip), vehicle: saline 113 % of control | dose: 16.0 mg/kg/injection, schedule: Q01DX001 (ip), vehicle: saline 118 % of control

COc1ccc(N=Nc2c(O)n(-c3ccccc3Cl)c(=S)n(-c3ccc(C)cc3)c2=O)cc1
inactive: [8] 105 % of control | [9] 97 % of control | dose: 400.0 mg/kg/injection, schedule: Q01DX001 (ip), vehicle: Klucel (hydroxypropylcellulose) (HPC) 102 % of control

COc1ccc(Nc2ncnc3ccccc23)cc1CN(CCCl)CCCl
inactive: [8] 100 % of control | [9] 90 % of control

O[B]c1nc2ccccc2c2ccccc12
inactive: [10] 105 % of control | [11] 102 % of control | dose: 240.0 mg/kg/injection, schedule: Q01DX005 (ip), vehicle: Klucel (hydroxypropylcellulose) (HPC) 119 % of control

O=C(Nc1ccc(Cc2ccc(NC(=O)Nc3nccs3)cc2)cc1)Nc1nccs1
inactive: dose: 12.5 mg/kg/injection, schedule: Q01DX009 (ip), vehicle: Klucel (hydroxypropylcellulose) (HPC) 100 % of control | dose: 25.0 mg/kg/injection, schedule: Q01DX009 (ip), vehicle: Klucel (hydroxypropylcellulose) (HPC) 100 % of control and 95 % of control | dose: 50.0 mg/kg/injection, schedule: Q01DX009 (ip), vehicle: Klucel (hydroxypropylcellulose) (HPC) 98 % of control and 91 % of control

C=C1C(=O)[C@@]23CC1C(O)[C@@H](OC(C)=O)[C@@H]2C1(C)C(OC(C)=O)C[C@@H](OC(C)=O)C(C)(C)[C@@H]1C[C@H]3OC(C)=O (stereo partly drawn)
inactive: dose: 25.0 mg/kg/injection, schedule: Q01DX005 (ip), vehicle: Klucel (hydroxypropylcellulose) (HPC) 102 % of control | [4] 117 % of control

O=C1N(c2cccc(F)c2)C(=O)N1c1cccc(F)c1
inactive: [1] 115 % of control | [2] 100 % of control | [3] 98 % of control

Nc1nc(N)c(CCCOc2ccc(C(=O)O)cc2)c(N)n1
inactive: [10] 93 % of control | [11] 97 % of control

Nc1nc(Nc2ccccc2)nc(SCc2ccccc2)n1
inactive: dose: 25.0 mg/kg/injection, schedule: Q01DX009 (ip), vehicle: saline with Tween-80 99 % of control | [1] 90 % of control | [2] 88 % of control
